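Briefly, cells in 96-well plates were exposed to five compound concentrations for 48 h, and endpoints were estimated by linear interpolation. GI50 = concentration required for 50% inhibition of growth.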 Activity calls are given as the source filed them. No stated cut-off is given here; in the data, active = GI50 up to about 1.1 µM and inactive = higher.
Tests used:
Assay in all cases: NCI anticancer screen, dose series, 48 h
786-0 = test system: 786-0
A498 = test system: A498
A549 = test system: A549
ACHN = test system: ACHN
BT-549 = test system: BT-549
CAKI-1 = test system: CAKI-1
CCRF-CEM = test system: CCRF-CEM
COLO 205 = test system: COLO 205
DU-145 = test system: DU-145
EKVX = test system: EKVX
HCC 2998 = test system: HCC 2998
HCT-116 = test system: HCT-116
HCT-15 = test system: HCT-15
HL-60 = test system: HL-60
HOP-62 = test system: HOP-62
HOP-92 = test system: HOP-92
HT-29 = test system: HT-29
Hs-578T = test system: Hs-578T
IGROV-1 = test system: IGROV-1
K562 = test system: K562
KM12 = test system: KM12
LOX IMVI = test system: LOX IMVI
MCF7 = test system: MCF7
MDA-MB-231 = test system: MDA-MB-231
MDA-MB-435 = test system: MDA-MB-435
MDA-N = test system: MDA-N
MOLT-4 = test system: MOLT-4
Malme-3M = test system: Malme-3M
NCI-H226 = test system: NCI-H226
NCI-H23 = test system: NCI-H23
NCI-H460 = test system: NCI-H460
NCI-H522 = test system: NCI-H522
NCI/ADR-RES = test system: NCI/ADR-RES
OVCAR-3 = test system: OVCAR-3
OVCAR-4 = test system: OVCAR-4
OVCAR-5 = test system: OVCAR-5
OVCAR-8 = test system: OVCAR-8
PC-3 = test system: PC-3
RPMI-8226 = test system: RPMI-8226
RXF 393 = test system: RXF 393
SF-268 = test system: SF-268
SF-295 = test system: SF-295
SF-539 = test system: SF-539
SK-MEL-28 = test system: SK-MEL-28
SK-MEL-2 = test system: SK-MEL-2
SK-MEL-5 = test system: SK-MEL-5
SK-OV-3 = test system: SK-OV-3
SN12C = test system: SN12C
SNB-19 = test system: SNB-19
SNB-75 = test system: SNB-75
SR = test system: SR
SW-620 = test system: SW-620
T47D = test system: T47D
TK-10 = test system: TK-10
U-251 = test system: U-251
UACC-257 = test system: UACC-257
UACC-62 = test system: UACC-62
UO-31 = test system: UO-31
M14 = test system: M14

Measured: GI50

Nc1nc(Cl)cc(NCC2(CO)CC(O)C2)n1 (centres undefined)
inactive: 786-0 > 100 µM | A498 > 100 µM | A549 > 100 µM | ACHN > 100 µM | BT-549 > 100 µM | CAKI-1 > 100 µM | CCRF-CEM > 100 µM | COLO 205 > 100 µM | DU-145 > 100 µM | EKVX > 100 µM | HCC 2998 > 100 µM | HCT-116 > 100 µM | HL-60 > 100 µM | HOP-62 > 100 µM | HOP-92 > 100 µM | HT-29 > 100 µM | Hs-578T > 100 µM | IGROV-1 > 100 µM | K562 > 100 µM | KM12 > 100 µM | LOX IMVI > 100 µM | MCF7 > 100 µM | MDA-MB-231 > 100 µM | MDA-MB-435 > 100 µM | MDA-N > 100 µM | MOLT-4 > 100 µM | Malme-3M > 100 µM | NCI-H226 > 100 µM | NCI-H23 > 100 µM | NCI-H460 > 100 µM | NCI-H522 > 100 µM | NCI/ADR-RES > 100 µM | OVCAR-3 > 100 µM | OVCAR-4 > 100 µM | OVCAR-5 > 100 µM | OVCAR-8 > 100 µM | PC-3 > 100 µM | RPMI-8226 > 100 µM | RXF 393 > 100 µM | SF-268 > 100 µM | SF-295 > 100 µM | SF-539 > 100 µM | SK-MEL-28 > 100 µM | SK-MEL-2 > 100 µM | SK-MEL-5 > 100 µM | SK-OV-3 > 100 µM | SN12C > 100 µM | SNB-19 > 100 µM | SNB-75 > 100 µM | SR > 100 µM | SW-620 > 100 µM | T47D > 100 µM | TK-10 > 100 µM | U-251 > 100 µM | UACC-257 > 100 µM | UACC-62 > 100 µM | UO-31 > 100 µM
> 100 µM: HCT-15

O=C(c1ccc(Cl)cc1Cl)N(Cc1cccnc1)C(=S)N(Cc1cccnc1)C(=O)c1ccc(Cl)cc1Cl
inactive: 786-0 2.12 µM | A498 10.3 µM | A549 19 µM | ACHN 9.62 µM | BT-549 3.72 µM | CAKI-1 11.6 µM | CCRF-CEM 1.86 µM | COLO 205 2.08 µM | DU-145 3.39 µM | EKVX 15.7 µM | HCC 2998 3.4 µM | HCT-116 2.48 µM | HL-60 3.55 µM | HOP-62 2.37 µM | HOP-92 3.83 µM | HT-29 2.38 µM | Hs-578T 21 µM | K562 3.52 µM | KM12 2.96 µM | LOX IMVI 3.64 µM | M14 3.01 µM | MCF7 2.58 µM | MDA-MB-231 2.75 µM | MDA-MB-435 17.7 µM | MDA-N 2.31 µM | MOLT-4 4.06 µM | Malme-3M 16.4 µM | NCI-H226 16.7 µM | NCI-H23 12.2 µM | NCI-H460 15.5 µM | NCI-H522 2.94 µM | NCI/ADR-RES 15.5 µM | OVCAR-3 2.67 µM | OVCAR-4 2.72 µM | OVCAR-5 10.7 µM | OVCAR-8 3.35 µM | PC-3 2.4 µM | RXF 393 6.43 µM | SF-268 4.68 µM | SF-295 22.2 µM | SF-539 2.22 µM | SK-MEL-28 10.9 µM | SK-MEL-2 3.58 µM | SK-MEL-5 3.33 µM | SK-OV-3 19.3 µM | SN12C 4.68 µM | SNB-19 12 µM | SNB-75 4.07 µM | SR 3.4 µM | SW-620 3.68 µM | T47D 11.4 µM | TK-10 3.77 µM | U-251 3.15 µM | UACC-257 6.32 µM | UACC-62 10.3 µM | UO-31 4.26 µM
3.12 µM: HCT-15
active: RPMI-8226 0.678 µM

CN(C)Cc1cc(/N=N/c2c(Cl)cccc2Cl)ccc1O
> 100 µM: HCT-15
inactive: 786-0 64.1 µM | A498 55.5 µM | A549 61.5 µM | ACHN 56.4 µM | BT-549 49 µM | CAKI-1 > 100 µM | CCRF-CEM > 100 µM | COLO 205 > 100 µM | DU-145 8.49 µM | EKVX > 100 µM | HCC 2998 > 100 µM | HCT-116 > 100 µM | HL-60 68.4 µM | HOP-62 > 100 µM | HOP-92 31.9 µM | HT-29 50.4 µM | Hs-578T 40.9 µM | IGROV-1 61.4 µM | K562 53.5 µM | KM12 > 100 µM | LOX IMVI 74.3 µM | M14 > 10 µM | MCF7 > 100 µM | MDA-MB-231 > 100 µM | MDA-MB-435 88.9 µM | MDA-N > 100 µM | MOLT-4 67.3 µM | Malme-3M 74.5 µM | NCI-H226 35.2 µM | NCI-H23 63.4 µM | NCI-H460 75 µM | NCI-H522 > 100 µM | NCI/ADR-RES > 100 µM | OVCAR-3 57.4 µM | OVCAR-4 > 100 µM | OVCAR-8 > 100 µM | PC-3 > 100 µM | RPMI-8226 74.8 µM | RXF 393 23.4 µM | SF-268 > 100 µM | SF-295 > 100 µM | SF-539 > 100 µM | SK-MEL-28 71.8 µM | SK-MEL-2 > 100 µM | SK-MEL-5 17.5 µM | SK-OV-3 > 100 µM | SN12C > 100 µM | SNB-19 > 100 µM | SNB-75 > 100 µM | SR 48.9 µM | SW-620 79.6 µM | T47D 42.6 µM | TK-10 > 100 µM | U-251 85.7 µM | UACC-257 79.6 µM | UACC-62 62.2 µM | UO-31 36 µM
